Values of other authors, collected in PubChem BioAssay AID1259409 (Chemical Carcinogenesis Research Information System (CCRIS), 2018).

Test system: rodent chemically induced tumor inhibition, incidence and multiplicity
Test: CCRIS tumor inhibitor studies

SMILES: CC1=C(/C=C/C(C)=C/C=C/C(C)=C/C=C/C=C(C)/C=C/C=C(C)/C=C/C2=C(C)CCCC2(C)C)C(C)(C)CCC1
- tumour outcome (control, treated, inhibition, significance) (Carcinogen: DIESEL EXHAUST PARTICLES, Dose [Inhibitor]: 0, 0.02% IN HIGH FAT DIET FOR DURATION OF STUDY (STUDY DURATION: 12 MO), Route [Inhibitor]: ORAL, Species: MOUSE, Strain/Sex: ICR/MALE, Target Tissue: Type of Lesion: LUNG: TUMOR, Dose [Carcinogen]: 0.1 MG 1/WK FOR 10 WK, Promoter: NONE USED): 13/30 (43%), 5/30 (17%), 60%, not calculated
- tumour outcome (control, treated, inhibition, significance) (Carcinogen: DIESEL EXHAUST PARTICLES, Dose [Inhibitor]: 0, 0.02% IN HIGH FAT DIET FOR DURATION OF STUDY (STUDY DURATION: 12 MO), Route [Inhibitor]: ORAL, Species: MOUSE, Strain/Sex: ICR/MALE, Target Tissue: Type of Lesion: LUNG: TUMOR, Dose [Carcinogen]: 0.2 MG 1/WK FOR 10 WK, Promoter: NONE USED): 7/29 (24%), 11/29 (38%), -58%, not calculated
- tumour outcome (control, treated, inhibition, significance) (Carcinogen: DIESEL EXHAUST PARTICLES, Dose [Inhibitor]: 0, 0.02% IN HIGH FAT DIET FOR DURATION OF STUDY (STUDY DURATION: 12 MO), Route [Inhibitor]: ORAL, Species: MOUSE, Strain/Sex: ICR/MALE, Target Tissue: Type of Lesion: LYMPHATIC SYSTEM: LYMPHOMA, Dose [Carcinogen]: 0.1 MG 1/WK FOR 10 WK, Promoter: NONE USED): 3/30 (10%), 9/30 (30%), -200%, not calculated
- tumour outcome (control, treated, inhibition, significance) (Carcinogen: DIESEL EXHAUST PARTICLES, Dose [Inhibitor]: 0, 0.02% IN HIGH FAT DIET FOR DURATION OF STUDY (STUDY DURATION: 12 MO), Route [Inhibitor]: ORAL, Species: MOUSE, Strain/Sex: ICR/MALE, Target Tissue: Type of Lesion: LYMPHATIC SYSTEM: LYMPHOMA, Dose [Carcinogen]: 0.2 MG 1/WK FOR 10 WK, Promoter: NONE USED): 8/29 (28%), 4/29 (14%), 50%, not calculated
- tumour outcome (control, treated, inhibition, significance) (Carcinogen: DIETHYLNITROSAMINE, 55-18-5, Dose [Inhibitor]: 0, 0.005% IN DIET FOR DURATION OF STUDY (STUDY DURATION: 13 WKS), Route [Inhibitor]: ORAL, Species: HAMSTER, Strain/Sex: SYRIAN/MALE, Target Tissue: Type of Lesion: LARYNX/TRACHEA: PAPILLOMA, Dose [Carcinogen]: 100 MG/KG BW ONCE, Promoter: CIGARETTE SMOKE): 13/28 (46%), 10/28 (36%), 22%, not significant
- tumour outcome (control, treated, inhibition, significance) (Carcinogen: DIETHYLNITROSAMINE, 55-18-5, Dose [Inhibitor]: 0, 0.05% IN DIET FOR DURATION OF STUDY (STUDY DURATION: 13 WKS), Route [Inhibitor]: ORAL, Species: HAMSTER, Strain/Sex: SYRIAN/MALE, Target Tissue: Type of Lesion: LARYNX/TRACHEA: PAPILLOMA, Dose [Carcinogen]: 100 MG/KG BW ONCE, Promoter: CIGARETTE SMOKE): 13/28 (46%), 11/29 (38%), 17%, not significant
- tumour outcome (control, treated, inhibition, significance) (Carcinogen: DIETHYLNITROSAMINE, 55-18-5, Dose [Inhibitor]: 0, 0.5% IN DIET FOR 10 D THEN REDUCED TO 0.25% FOR DURATION OF STUDY (STUDY DURATION: 13 WKS), Route [Inhibitor]: ORAL, Species: HAMSTER, Strain/Sex: SYRIAN/MALE, Target Tissue: Type of Lesion: LARYNX/TRACHEA: PAPILLOMA, Dose [Carcinogen]: 100 MG/KG BW ONCE, Promoter: CIGARETTE SMOKE): 13/28 (46%), 4/26 (15%), 67%, p< 0.05
- tumour outcome (control, treated, inhibition, significance) (Carcinogen: DIETHYLNITROSAMINE, 55-18-5, Dose [Inhibitor]: 0, 1.5 MG 2/WK FOR 20 WK (STUDY DURATION: 25 WK), Route [Inhibitor]: SUBCUTANEOUS, Species: HAMSTER, Strain/Sex: SYRIAN/MALE, Target Tissue: Type of Lesion: LUNG: CARCINOMA, Dose [Carcinogen]: 17.8 MG/KG BW 2/WK FOR 20 WK, Promoter: NONE USED): 50%, 26%, 48%, not significant
- tumour outcome (control, treated, inhibition, significance) (Carcinogen: DIETHYLNITROSAMINE, 55-18-5, Dose [Inhibitor]: 0, 1.5 MG 2/WK FOR 20 WK (STUDY DURATION: 25 WK), Route [Inhibitor]: SUBCUTANEOUS, Species: HAMSTER, Strain/Sex: SYRIAN/MALE, Target Tissue: Type of Lesion: TRACHEA: PAPILLOMA, Dose [Carcinogen]: 17.8 MG/KG BW 2/WK FOR 20 WK, Promoter: NONE USED): 95%, 100%, -5%, not significant
- tumour outcome (control, treated, inhibition, significance) (Carcinogen: DIETHYLNITROSAMINE, 55-18-5, Dose [Inhibitor]: 0, 3 MG 2/WK FOR 20 WK (STUDY DURATION: 25 WK), Route [Inhibitor]: SUBCUTANEOUS, Species: HAMSTER, Strain/Sex: SYRIAN/MALE, Target Tissue: Type of Lesion: LUNG: CARCINOMA, Dose [Carcinogen]: 17.8 MG/KG BW 2/WK FOR 20 WK, Promoter: NONE USED): 60%, 30%, 50%, not significant
- tumour outcome (control, treated, inhibition, significance) (Carcinogen: DIETHYLNITROSAMINE, 55-18-5, Dose [Inhibitor]: 0, 3 MG 2/WK FOR 20 WK (STUDY DURATION: 25 WK), Route [Inhibitor]: SUBCUTANEOUS, Species: HAMSTER, Strain/Sex: SYRIAN/MALE, Target Tissue: Type of Lesion: TRACHEA: PAPILLOMA, Dose [Carcinogen]: 17.8 MG/KG BW 2/WK FOR 20 WK, Promoter: NONE USED): 100%, 100%, 0%, not significant
- tumour outcome (control, treated, inhibition, significance) (Carcinogen: DIMETHYLBENZ[A]ANTHRACENE, 57-97-6, Dose [Inhibitor]: 0.25 ML OF 0.015% AGENT IN ACETONE ADMINISTERED WITH PROMOTER 5/WK FOR 16 WK BEGINNING 3 WK POST CARCINOGEN DOSE (STUDY, Route [Inhibitor]: DERMAL, Species: MOUSE, Strain/Sex: ICR/FEMALE, Target Tissue: Type of Lesion: SKIN: PAPILLOMA, Dose [Carcinogen]: 0.125 MG IN 0.25 ML ACETONE ONCE, Promoter: PHENOL, 108-95-2): 7/25 (28%), 6/28 (21%), 25%, not calculated
- tumour outcome (control, treated, inhibition, significance) (Carcinogen: DIMETHYLBENZ[A]ANTHRACENE, 57-97-6, Dose [Inhibitor]: 100 MG/KG OF DIET IMMEDIATELY FOLLOWING CARCINOGEN DOSE FOR 22 WK (STUDY DURATION: 22 WK), Route [Inhibitor]: ORAL, Species: RAT, Strain/Sex: SPRAGUE-DAWLEY/MALE, Target Tissue: Type of Lesion: SALIVARY GLAND: TUMOR, Dose [Carcinogen]: 1 MG IN OLIVE OIL INJECTED INTO ONE SALIVARY GLAND ONCE, Promoter: NONE USED): 3/9 (33%), 1/11 (9%), 73%, not significant
- tumour outcome (control, treated, inhibition, significance) (Carcinogen: METHYL(ACETOXYMETHYL)NITROSAMINE, 56856-83-8, Dose [Inhibitor]: 0, 5.8 NMOL IN DRINKING WATER BEGINNING 2 WK PRIOR TO CARCINOGEN AND CONTINUED FOR STUDY DURATION, (STUDY DURATION: 13 M, Dose [Inhibitor]: 0, 5.8 NMOL IN DRINKING WATER BEGINNING 2 WK PRIOR TO CARCINOGEN AND CONTINUED FOR STUDY DURATION, (STUDY DURATION: 13 M, Route [Inhibitor]: ORAL, Species: HAMSTER, Strain/Sex: SYRIAN/FEMALE, Target Tissue: Type of Lesion: ORAL CAVITY: TUMOR, Dose [Carcinogen]: 2 MG/KG BW IN DISTILLED WATER TO RIGHT CHEEK POUCH 2/MO FOR 6 MO (TOTAL DOSE 24 MG/KG), Promoter: NONE USED): 14/15 (93%), 4/15 (27%), 71%, p<0.001
- tumour outcome (control, treated, inhibition, significance) (Carcinogen: N-BUTYL-N-(4-HYDROXYBUTYL)NITROSAMINE, 3817-11-6, Dose [Inhibitor]: 0, 0.0025% IN DRINKING WATER FOR 12 WK BEGINNING POST CARCINOGEN TREATMENT (STUDY DURATION: 20 WK), Route [Inhibitor]: ORAL, Species: RAT, Strain/Sex: F344/MALE, Target Tissue: Type of Lesion: URINARY BLADDER: TRANSITIONAL CELL CARCINOMA, Dose [Carcinogen]: 0.05% IN DRINKING WATER FOR 8 WK, Promoter: NONE USED): 10/12 (83%), 12/12 (100%), -20%, not significant
- tumour outcome (control, treated, inhibition, significance) (Carcinogen: N-BUTYL-N-(4-HYDROXYBUTYL)NITROSAMINE, 3817-11-6, Dose [Inhibitor]: 0, 0.1% IN DIET BEGINNING 5 WK PRIOR TO CARCINOGEN TREATMENT AND CONTINUING FOR DURATION OF STUDY (STUDY DURATION: 7 MO), Route [Inhibitor]: ORAL, Species: MOUSE, Strain/Sex: B6D2F1/MALE, Target Tissue: Type of Lesion: BLADDER: CARCINOMA IN SITU, Dose [Carcinogen]: 5 MG IN SALINE SOLUTION 2/WK FOR 9 WK, Promoter: NONE USED): 7/24 (29%), 3/24 (13%), 55%, not calculated
- tumour outcome (control, treated, inhibition, significance) (Carcinogen: N-BUTYL-N-(4-HYDROXYBUTYL)NITROSAMINE, 3817-11-6, Dose [Inhibitor]: 0, 0.1% IN DIET BEGINNING 5 WK PRIOR TO CARCINOGEN TREATMENT AND CONTINUING FOR DURATION OF STUDY (STUDY DURATION: 7 MO), Route [Inhibitor]: ORAL, Species: MOUSE, Strain/Sex: B6D2F1/MALE, Target Tissue: Type of Lesion: BLADDER: TRANSITIONAL CELL CARCINOMA, Dose [Carcinogen]: 5 MG IN SALINE SOLUTION 2/WK FOR 9 WK, Promoter: NONE USED): 8/24 (33%), 5/24 (21%), 36%, not calculated
- tumour outcome (control, treated, inhibition, significance) (Carcinogen: N-BUTYL-N-(4-HYDROXYBUTYL)NITROSAMINE, 3817-11-6, Dose [Inhibitor]: 0, 0.1% IN DIET BEGINNING 5 WK PRIOR TO CARCINOGEN TREATMENT AND CONTINUING FOR DURATION OF STUDY (STUDY DURATION: 7 MO), Route [Inhibitor]: ORAL, Species: MOUSE, Strain/Sex: B6D2F1/MALE, Target Tissue: Type of Lesion: BLADDER: TUMOR, Dose [Carcinogen]: 5 MG IN SALINE SOLUTION 2/WK FOR 9 WK, Promoter: NONE USED): 15/24 (63%), 8/24 (33%), 48%, p<0.05
